Key:
[1] = target: T1, DNA topoisomerase II (Homo sapiens) (UniProt P11388+Q02880); assay: (§1) Compound was tested for percentage inhibition against DNA topoisomerase II; assay type: protein assay; parameters: concentration or dose not given beside the values; details: concentration not given here
[2] = target: T1, DNA topoisomerase II (Homo sapiens); assay: as §1; assay type: protein assay; details: concentration not given here

CCO[C@@H]1c2cc3c(cc2[C@@H](c2cc(OC)c(O)c(OC)c2)[C@H]2C(=O)OCC12)OCO3 (some centres undefined)
inhibition [1]: 89%

COc1cc([C@@H]2c3cc4c(cc3[C@@H](O)C3COC(=O)[C@@H]32)OCO4)cc(O)c1O (some centres undefined)
inhibition [2]: 75%

COc1cc([C@@H]2c3cc4c(cc3[C@@H](O[C@@H]3O[C@@H]5CO[C@@H](C)O[C@H]5[C@H](O)[C@H]3O)[C@H]3COC(=O)[C@H]23)OCO4)cc(OC)c1O
inhibition [1]: 85%

COc1cc([C@@H]2c3cc4c(cc3[C@@H](O)[C@H]3COC(=O)[C@H]23)OCO4)cc(OC)c1O
inhibition [1]: 60%

COc1cc([C@@H]2c3cc(OC(C)=O)c(OC(C)=O)c(OC(C)=O)c3CC3COC(=O)[C@@H]32)cc(OC)c1OC(C)=O (some centres undefined)
inhibition [2]: 25%

COc1cc([C@@H]2c3cc(O)c(O)c(O)c3CC3COC(=O)[C@@H]32)cc(OC)c1O (some centres undefined)
inhibition [2]: 45%

COc1cc([C@@H]2c3cc4c(c(OC(C)=O)c3CC3COC(=O)[C@@H]32)OCO4)cc(OC)c1OC(C)=O (some centres undefined)
inhibition [2]: 10%

COc1cc([C@@H]2c3cc4c(c(O)c3C[C@H]3COC(=O)[C@@H]32)OCO4)cc(OC)c1O
inhibition [1]: 20%

COc1cc([C@@H]2c3cc4c(cc3[C@H](O)[C@H]3COC(=O)[C@H]23)OCO4)cc(OC)c1OC
inhibition [1]: 30%

Reference: ChEMBL document CHEMBL1123354, “Antitumor agents. 78. Inhibition of human DNA topoisomerase II by podophyllotoxin and alpha-peltatin analogues” (J Med Chem, 1986)
